In US9708370B2, “Azapeptides as CD36 binding compounds” (VALORISATION-RECHERCHE, LIMITED PARTNERSHIP, priority 2007, dated 2017):
Starred links: 1 amine or outer side, 2 acyl side, 3 side chain; linkers in the order of their positions; H or OH if unused. Non-standard residues stand in square brackets, D forms with d. Residues, ends and D or L forms follow the SMILES beside them. azaTyr = O=C(N(Cc1ccc(O)cc1)N[*:1])[*:2]

Biological target: CD36 (Rattus norvegicus (Rat), UniProt Q07969)
Test: CD36 receptor covalent photolabelling binding assay, competition with [125I]Tyr-Bpa-Ala-hexarelin on rat cardiac membranes

Sequence of CD36 (Q07969 whole entry): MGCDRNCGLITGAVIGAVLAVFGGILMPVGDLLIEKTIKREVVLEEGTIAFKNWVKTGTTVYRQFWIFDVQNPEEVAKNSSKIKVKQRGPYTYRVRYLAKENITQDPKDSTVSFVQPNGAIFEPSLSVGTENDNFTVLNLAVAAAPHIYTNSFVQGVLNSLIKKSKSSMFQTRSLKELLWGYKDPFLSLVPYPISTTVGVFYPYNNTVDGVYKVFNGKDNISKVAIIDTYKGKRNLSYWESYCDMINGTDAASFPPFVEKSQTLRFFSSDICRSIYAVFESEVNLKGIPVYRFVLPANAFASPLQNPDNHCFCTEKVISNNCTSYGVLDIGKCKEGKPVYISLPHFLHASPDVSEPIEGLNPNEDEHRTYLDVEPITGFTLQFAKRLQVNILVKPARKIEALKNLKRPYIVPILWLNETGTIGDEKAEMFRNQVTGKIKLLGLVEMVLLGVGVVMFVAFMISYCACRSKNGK

IC50 (Table 3, rat cardiac membranes, [125I]Tyr-Bpa-Ala-hexarelin as radioligand, read-out: IC50, binding affinity of aza peptide derivatives towards CD36): 28 µM
binding activity/affinity at CD36 in words (compared with parent peptide GHRP-6 or hexarelin): maintaining the binding activity
SMILES: C[C@H](NC(=O)[C@@H](Cc1c[nH]c2ccccc12)NC(=O)[C@@H](N)Cc1cnc[nH]1)C(=O)NN(Cc1ccc(O)cc1)C(=O)N[C@H](Cc1ccccc1)C(=O)N[C@@H](CCCCN)C(N)=O [DBG178p, His-D-Trp-Ala-azaTyr-D-Phe-Lys-NH2] (H-H[dW]A[azaTyr][dF]K-NH2)
